According to US9750747B2, “Treatments involving eslicarbazepine acetate or eslicarbazepine” (BAIL-PORTELA & CA, S.A., priority 2011, dated 2017):
“Also recorded” adds a separate entry of the source. Read-outs that look alike come from different tables or passages of the source.

Tests used:
α3β2γ2 GABA receptors = biological target: T1, α3β2γ2 GABA receptors (Homo sapiens, UniProt P18507+P34903+P47870); assay: whole-cell patch-clamp, sub-maximal GABA inward currents in stably transfected Ltk cells; format: cell-based; settings: Table 1
T1 construct: host or cells: Ltk cells, expression induced with dexamethasone
Description: (§1) Carbamazepine (CBZ) aggravates absence seizures in ‘generalized absence epilepsy rats from. Strasbourg’. One putative mechanism for the aggravation is through its reported potentiation of GABAA currents. A study was carried out to determine the effect of eslicarbazepine, R-licarbazepine and carbamazepine on sub-maximal GABA currents in Ltk cells stably expressing α1β2γ2, α2β2γ2, α3β2γ2 or α5β2γ2 GABA-receptors. The whole-cell patch-clamp technique was used to investigate the effects of the test compounds on GABAA receptors.
(§2) Used Ltk cells were stably transfected with recombinant GABAA cDNAs: α1β2γ2, α2β2γ2, α3β2γ2 or α5β2γ2 (B'SYS GmbH, Switzerland). […] For the electrophysiological experiments cells were cultivated, at a density that enabled single cells to be measured, in medium without antibiotics or antimycotics. Cells were tested 24-48 hours following induction of transgene expression with dexamethasone.
(§3) The whole-cell patch clamp recordings from transfected Ltk cells (voltage-clamped at a holding potential of −80 mV) were made using a EPC-7, HEKA Electronics amplifier. GABA inward-currents were measured upon application of 1 or 2 μM GABA to patch-clamped cells (at an EC5).
(§4) Analysis of Variance (ANOVA) with post test multisample comparison (Dunnett) was conducted with GraphPad Prism 4 Software.

α5β2γ2 GABA receptors = biological target: T2, α5β2γ2 GABA receptors (Homo sapiens, UniProt P18507+P31644+P47870); assay: as above; format: cell-based; settings: Table 1
T2 construct: host or cells: Ltk cells, expression induced with dexamethasone
Description: as §1, §2, §3, §4

α1β2γ2 GABA receptors = biological target: T3, α1β2γ2 GABA receptors (Homo sapiens, UniProt P14867+P18507+P47870); assay: as above; format: cell-based; settings: Table 1
T3 construct: host or cells: Ltk cells, expression induced with dexamethasone
Description: as §1, §2, §3, §4

α2β2γ2 GABA receptors = biological target: T4, α2β2γ2 GABA receptors (Homo sapiens, UniProt P18507+P47869+P47870); assay: as above; format: cell-based; settings: Table 1
T4 construct: host or cells: Ltk cells, expression induced with dexamethasone
Description: as §1, §2, §3, §4

[1] = biological target: T5, human T-type calcium channels hCav3.2 (Homo sapiens, UniProt O95180); assay: whole-cell patch-clamp, calcium peak currents in stably transfected HEK 293 cells; format: cell-based; settings: for Relative current amplitude (%): hCav3.2 in HEK 293 cells; for IC50: two site binding model
T5 construct: expressed in transfected cells; host or cells: HEK 293 cells (European Collection of Animal Cell Culture)
Description: A study was carried out to determine the effect of eslicarbazepine.
Cells were stably transfected with hCav3.2 cDNA.
Calcium inward currents were measured upon depolarization of the cell membrane to −25 mV for 50 ms from a holding potential of −80 mV. This voltage protocol was run at intervals of 10 s until stabilization of evoked hCav3.2 currents. […] Vehicle was either bath solution or 0.2% DMSO.
Analysis of variance (ANOVA) with post test multisample comparison (Dunnett) was conducted with GraphPad Prism 4 Software. IC50 were calculated with the equation: […]

[2] = tested on: α1β2γ2, α2β2γ2, α3β2γ2 or α5β2γ2 GABA-receptors; assay: overall effect on sub-maximal GABA currents (summary of Example 1); format: cell-based; settings: Ltk cells, all four receptor subtypes
Description: as §1
Used Ltk cells were stably transfected with recombinant GABAA cDNAs: α1β2γ2, α2β2γ2, α3β2γ2 or α5β2γ2 (B'SYS GmbH, Switzerland). Cells were maintained in a humidified atmosphere (95% relative humidity) with 5% CO2 and were grown in D-MEM/F-12 (1×, liquid, with GlutaMax 1) supplemented with 9% foetal bovine serum and 0.9% Penicillin/Streptomycin solution (Gibco BRL). For the electrophysiological experiments cells were cultivated, at a density that enabled single cells to be measured, in medium without antibiotics or antimycotics. Cells were tested 24-48 hours following induction of transgene expression with dexamethasone.
Cells were continuously perfused with bath solution (NaCl 137 mM, KCl 4 mM, CaCl2 1.8 mM, MgCl2 1 mM, D-Glucose 10 mM HEPES 10 mM, pH 7.4). […] GABA inward-currents were measured upon application of 1 or 2 μM GABA to patch-clamped cells (at an EC5). […]

absence seizure = assay: mouse absence seizure models (γ-butyrolactone induced, SSADH null, stargazer, C3H/He); format: in vivo; settings: mice models (a)-(d)
[3] = tested on: primary generalised tonic clonic seizure (PGTCS); assay: randomised double-blind placebo controlled trial of adjunctive treatment in PGTCS; format: in vivo; settings: human patients, adjunct or monotherapy
Source text: Clinical trial study: A randomised double-blind, placebo controlled, trial assesses the efficacy and safety of adjunctive eslicarbazepine acetate in primary generalised tonic clonic seizure (PGTCS) in human patients in accordance with established methods. Methods: Men and women are selected for trial according to standard inclusion criteria in the field including the following: • Subject is male or female and aged 6-65 years. • Subject has ≧3 PGTCS over the two months before screening and during the eight weeks Baseline Period with at least one seizure in each one month period. […] Trial endpoints assessed clinical criteria are as follows: • time to withdrawal after randomisation; • time to first, second, or other seizure after randomisation (time to first seizure after randomisation allows determination of the proportion of patients at different time points who remain seizure free); • time to achieving remission (e.g. at six months, one year, or two years); • change in seizure severity; • change in seizure frequency; • percentage response to treatment (response defined as a 50% or greater reduction in seizure frequency); • change in seizure-free interval; • change in seizure duration; • change in seizure pattern; • change in functional capacity; and • patient-related quality of life.

[4] = 50 μM with GABA at EC5, Ltk cells
[5] = 100 μM with GABA at EC5, Ltk cells
[6] = 250 μM with GABA at EC5, Ltk cells
[7] = 500 μM with GABA at EC5, Ltk cells
[8] = high affinity fit, read-out: hCav3.2 IC50 (μM) High affinity
[9] = low affinity fit, read-out: hCav3.2 IC50 (μM) Low affinity

T2 sequence (P31644 32-462): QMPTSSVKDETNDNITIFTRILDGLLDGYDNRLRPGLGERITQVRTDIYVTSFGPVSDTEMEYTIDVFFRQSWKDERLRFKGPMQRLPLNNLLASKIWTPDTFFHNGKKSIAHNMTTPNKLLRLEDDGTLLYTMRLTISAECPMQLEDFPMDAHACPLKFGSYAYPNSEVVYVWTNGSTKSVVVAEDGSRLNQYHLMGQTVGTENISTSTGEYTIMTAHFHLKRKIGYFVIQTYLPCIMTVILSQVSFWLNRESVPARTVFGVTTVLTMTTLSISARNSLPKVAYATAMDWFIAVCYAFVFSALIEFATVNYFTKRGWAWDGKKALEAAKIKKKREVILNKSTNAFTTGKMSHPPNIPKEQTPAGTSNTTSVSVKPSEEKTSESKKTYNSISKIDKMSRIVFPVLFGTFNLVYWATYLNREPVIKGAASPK
T2 sequence (P47870 25-512 limits assumed): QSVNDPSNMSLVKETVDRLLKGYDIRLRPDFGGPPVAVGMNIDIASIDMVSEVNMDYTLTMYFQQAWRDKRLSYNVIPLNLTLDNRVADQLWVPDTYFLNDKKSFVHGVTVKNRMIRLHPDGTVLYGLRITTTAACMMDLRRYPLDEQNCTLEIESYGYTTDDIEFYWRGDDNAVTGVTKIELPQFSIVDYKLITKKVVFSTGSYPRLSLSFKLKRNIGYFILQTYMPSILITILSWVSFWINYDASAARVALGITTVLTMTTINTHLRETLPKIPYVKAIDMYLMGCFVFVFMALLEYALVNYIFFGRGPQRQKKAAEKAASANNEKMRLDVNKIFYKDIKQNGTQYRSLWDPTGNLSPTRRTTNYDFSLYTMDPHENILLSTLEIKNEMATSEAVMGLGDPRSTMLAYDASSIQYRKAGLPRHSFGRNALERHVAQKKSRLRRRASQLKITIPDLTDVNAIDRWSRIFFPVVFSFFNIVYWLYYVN
T2 sequence (P18507 40-475): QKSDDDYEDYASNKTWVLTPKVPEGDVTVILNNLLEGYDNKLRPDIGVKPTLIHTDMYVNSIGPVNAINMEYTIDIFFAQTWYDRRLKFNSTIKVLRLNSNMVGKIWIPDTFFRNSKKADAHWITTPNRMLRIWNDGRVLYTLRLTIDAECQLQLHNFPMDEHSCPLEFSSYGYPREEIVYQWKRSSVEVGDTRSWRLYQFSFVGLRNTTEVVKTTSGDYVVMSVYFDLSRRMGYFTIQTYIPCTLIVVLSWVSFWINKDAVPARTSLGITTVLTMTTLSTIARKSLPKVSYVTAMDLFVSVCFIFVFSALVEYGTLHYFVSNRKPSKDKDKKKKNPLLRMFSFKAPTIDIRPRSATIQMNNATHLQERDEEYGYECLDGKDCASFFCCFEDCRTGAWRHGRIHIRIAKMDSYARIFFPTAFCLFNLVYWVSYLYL
T1 sequence (P34903 29-492): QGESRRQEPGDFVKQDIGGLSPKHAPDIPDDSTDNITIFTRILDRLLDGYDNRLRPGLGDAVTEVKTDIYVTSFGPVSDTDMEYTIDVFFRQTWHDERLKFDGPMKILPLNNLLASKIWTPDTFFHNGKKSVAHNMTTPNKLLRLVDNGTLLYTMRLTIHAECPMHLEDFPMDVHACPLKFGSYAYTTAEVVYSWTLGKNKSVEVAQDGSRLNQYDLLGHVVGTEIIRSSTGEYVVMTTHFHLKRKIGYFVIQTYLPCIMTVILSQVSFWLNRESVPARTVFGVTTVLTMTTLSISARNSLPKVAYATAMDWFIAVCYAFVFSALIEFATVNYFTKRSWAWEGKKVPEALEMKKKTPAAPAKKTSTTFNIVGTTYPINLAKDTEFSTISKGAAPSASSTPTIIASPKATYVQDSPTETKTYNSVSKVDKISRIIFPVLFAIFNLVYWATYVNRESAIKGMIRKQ
T1 sequence (P47870 25-512 limits assumed): as the sequence (P47870 25-512 limits assumed) above
T1 sequence (P18507 40-475): as the sequence (P18507 40-475) above
T5 sequence (O95180 whole entry): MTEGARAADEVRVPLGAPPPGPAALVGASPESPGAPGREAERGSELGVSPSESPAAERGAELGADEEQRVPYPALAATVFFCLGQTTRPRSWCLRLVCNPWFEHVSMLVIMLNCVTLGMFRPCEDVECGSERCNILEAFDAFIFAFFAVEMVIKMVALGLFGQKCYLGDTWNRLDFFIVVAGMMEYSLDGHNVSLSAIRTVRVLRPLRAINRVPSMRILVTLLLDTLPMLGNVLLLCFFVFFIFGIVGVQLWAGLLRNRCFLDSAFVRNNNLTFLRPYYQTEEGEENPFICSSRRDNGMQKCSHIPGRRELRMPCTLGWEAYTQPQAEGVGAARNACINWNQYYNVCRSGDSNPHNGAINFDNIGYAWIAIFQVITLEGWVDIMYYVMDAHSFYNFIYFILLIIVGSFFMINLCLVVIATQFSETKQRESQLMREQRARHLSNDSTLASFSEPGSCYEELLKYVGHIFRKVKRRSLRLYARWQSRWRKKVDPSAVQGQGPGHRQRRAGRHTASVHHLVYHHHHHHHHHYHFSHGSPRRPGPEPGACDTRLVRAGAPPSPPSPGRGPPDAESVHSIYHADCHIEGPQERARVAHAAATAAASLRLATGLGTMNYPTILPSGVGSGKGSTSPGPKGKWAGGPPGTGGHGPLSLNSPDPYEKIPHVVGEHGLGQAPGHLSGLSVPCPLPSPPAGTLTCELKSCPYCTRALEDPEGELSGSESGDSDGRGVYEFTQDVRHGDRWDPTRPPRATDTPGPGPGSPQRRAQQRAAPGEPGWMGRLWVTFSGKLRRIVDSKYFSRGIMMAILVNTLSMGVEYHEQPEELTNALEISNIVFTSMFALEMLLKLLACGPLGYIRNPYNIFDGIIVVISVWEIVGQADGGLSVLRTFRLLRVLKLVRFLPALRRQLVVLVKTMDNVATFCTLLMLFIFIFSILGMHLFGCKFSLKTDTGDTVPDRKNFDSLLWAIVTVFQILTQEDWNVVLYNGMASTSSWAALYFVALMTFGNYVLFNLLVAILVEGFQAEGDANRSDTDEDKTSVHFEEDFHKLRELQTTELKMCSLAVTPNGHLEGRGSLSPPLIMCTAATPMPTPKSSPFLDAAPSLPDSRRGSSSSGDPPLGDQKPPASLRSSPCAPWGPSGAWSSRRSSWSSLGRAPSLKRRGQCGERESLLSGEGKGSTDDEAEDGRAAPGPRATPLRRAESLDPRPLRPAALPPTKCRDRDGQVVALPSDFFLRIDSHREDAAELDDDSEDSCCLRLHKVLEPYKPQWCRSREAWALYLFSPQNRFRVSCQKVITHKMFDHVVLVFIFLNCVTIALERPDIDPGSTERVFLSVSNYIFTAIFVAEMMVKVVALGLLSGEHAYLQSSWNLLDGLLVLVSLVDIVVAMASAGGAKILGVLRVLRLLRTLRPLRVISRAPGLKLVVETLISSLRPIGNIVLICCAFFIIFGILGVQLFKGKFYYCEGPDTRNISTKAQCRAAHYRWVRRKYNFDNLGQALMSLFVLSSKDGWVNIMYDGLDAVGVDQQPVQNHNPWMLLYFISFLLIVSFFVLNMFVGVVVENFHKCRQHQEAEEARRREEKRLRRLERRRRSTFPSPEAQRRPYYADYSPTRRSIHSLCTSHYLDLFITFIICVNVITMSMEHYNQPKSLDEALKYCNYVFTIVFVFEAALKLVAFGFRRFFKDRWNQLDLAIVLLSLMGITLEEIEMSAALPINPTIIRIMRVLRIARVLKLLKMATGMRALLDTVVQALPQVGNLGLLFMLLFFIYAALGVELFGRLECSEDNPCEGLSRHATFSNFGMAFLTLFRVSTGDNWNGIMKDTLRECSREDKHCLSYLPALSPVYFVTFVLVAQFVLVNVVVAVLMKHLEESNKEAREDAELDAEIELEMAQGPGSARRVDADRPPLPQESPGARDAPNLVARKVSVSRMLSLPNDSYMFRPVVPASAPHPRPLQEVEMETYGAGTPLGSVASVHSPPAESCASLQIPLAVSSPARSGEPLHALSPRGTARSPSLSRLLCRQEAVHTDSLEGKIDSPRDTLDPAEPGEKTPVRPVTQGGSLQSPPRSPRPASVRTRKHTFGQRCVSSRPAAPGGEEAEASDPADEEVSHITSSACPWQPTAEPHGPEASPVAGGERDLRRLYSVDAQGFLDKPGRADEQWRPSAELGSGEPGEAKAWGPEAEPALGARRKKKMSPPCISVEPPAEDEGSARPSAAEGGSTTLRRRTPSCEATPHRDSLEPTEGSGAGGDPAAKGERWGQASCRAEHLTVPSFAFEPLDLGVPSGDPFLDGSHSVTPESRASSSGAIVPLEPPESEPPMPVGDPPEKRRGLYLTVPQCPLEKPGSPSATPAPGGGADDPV
T4 sequence (P47869 29-451): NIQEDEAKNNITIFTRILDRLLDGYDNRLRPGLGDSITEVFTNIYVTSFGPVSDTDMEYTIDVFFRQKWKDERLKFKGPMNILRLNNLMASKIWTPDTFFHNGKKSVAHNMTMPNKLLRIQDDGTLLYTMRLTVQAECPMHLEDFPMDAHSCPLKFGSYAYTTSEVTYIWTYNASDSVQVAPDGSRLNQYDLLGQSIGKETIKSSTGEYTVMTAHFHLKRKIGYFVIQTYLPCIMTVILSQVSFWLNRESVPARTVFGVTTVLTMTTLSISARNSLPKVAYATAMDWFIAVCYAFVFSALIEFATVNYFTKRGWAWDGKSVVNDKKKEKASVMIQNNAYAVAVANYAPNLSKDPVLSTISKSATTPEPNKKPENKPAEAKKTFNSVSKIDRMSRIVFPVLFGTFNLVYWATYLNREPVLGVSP
T4 sequence (P47870 25-512 limits assumed): as the sequence (P47870 25-512 limits assumed) above
T4 sequence (P18507 40-475): as the sequence (P18507 40-475) above

Row | Compound | Current stimulation (%) α3β2γ2 (α3β2γ2 GABA receptors; [4]) [%] | Current stimulation (%) α3β2γ2 (α3β2γ2 GABA receptors; [5]) [%] | Current stimulation (%) α3β2γ2 (α3β2γ2 GABA receptors; [6]) [%] | Current stimulation (%) α3β2γ2 (α3β2γ2 GABA receptors; [7]) [%] | Current stimulation (%) α5β2γ2 (α5β2γ2 GABA receptors; [4]) [%] | Current stimulation (%) α5β2γ2 (α5β2γ2 GABA receptors; [5]) [%] | Current stimulation (%) α5β2γ2 (α5β2γ2 GABA receptors; [6]) [%] | Current stimulation (%) α5β2γ2 (α5β2γ2 GABA receptors; [7]) [%] | Current stimulation (%) α1β2γ2 (α1β2γ2 GABA receptors; [4]) [%] | Current stimulation (%) α1β2γ2 (α1β2γ2 GABA receptors; [5]) [%] | Current stimulation (%) α1β2γ2 (α1β2γ2 GABA receptors; [6]) [%] | Current stimulation (%) α1β2γ2 (α1β2γ2 GABA receptors; [7]) [%] | Current stimulation (%) α2β2γ2 (α2β2γ2 GABA receptors; [4]) [%] | Current stimulation (%) α2β2γ2 (α2β2γ2 GABA receptors; [5]) [%] | Current stimulation (%) α2β2γ2 (α2β2γ2 GABA receptors; [6]) [%] | Current stimulation (%) α2β2γ2 (α2β2γ2 GABA receptors; [7]) [%] | effect on hCav3.2 calcium peak currents (in words) [1] | Relative current amplitude (%) ([1]; 0.3 μM) | Relative current amplitude (%) ([1]; 1 μM) | Relative current amplitude (%) ([1]; 3 μM) | other results
1 | NC(=O)N1c2ccccc2C[C@@H](O)c2ccccc21 [R-licarbazepine] | 99.53 ± 2.65 | 100.38 ± 1.56 | 102.94 ± 3.34 | 97.35 ± 2.91 | 96.13 ± 0.57 | 94.09 ± 1.27 | 97.24 ± 1.58 | 92.25 ± 1.29 | 99.85 ± 1.18 | 92.53 ± 4.53 | 91.73 ± 4.69 | 95.83 ± 6.63 | 96.48 ± 2.11 | 97.03 ± 2.27 | 93.79 ± 3.09 | 87.75 ± 1.94 | dose dependently inhibited | 98.42 ± 1.33 | 92.43 ± 1.41 | 88.21 ± 1.03 | Relative current amplitude (%) ([1]; 10 μM): 82.92 ± 1.29 %; Relative current amplitude (%) ([1]; 30 μM): 78.21 ± 2.14 %; Relative current amplitude (%) ([1]; 50 μM): 73.86 ± 3.78 %; Relative current amplitude (%) ([1]; 100 μM): 71.61 ± 1.68 %; Relative current amplitude (%) ([1]; 250 μM): 64.52 ± 3.05 %; Relative current amplitude (%) ([1]; 500 μM): 58.10 ± 2.74 %; Relative current amplitude (%) ([1]; 1000 μM): 39.37 ± 5.33 %; IC50 [1, 8]: 6.54 µM; IC50 [1, 9]: 883 µM; effects upon sub-maximal GABA currents (in words) [2]: devoid of effects
2 | NC(=O)N1c2ccccc2C[C@H](O)c2ccccc21 [Eslicarbazepine, (S)-10-hydroxy-10,11-dihydro-5H-dibenz[b,f]azepine-5-carboxamide] | 95.61 ± 4.75 | 97.93 ± 4.22 | 96.44 ± 2.16 | 91.63 ± 5.56 | 95.18 ± 2.18 | 93.89 ± 0.60 | 93.52 ± 1.75 | 89.65 ± 3.44 | 103.3 ± 1.96 | 95.92 ± 0.83 | 97.82 ± 1.13 | 99.39 ± 0.80 | 91.58 ± 2.69 | 97.04 ± 2.65 | 88.56 ± 3.24 | 89.80 ± 4.01 | dose dependently inhibited; also recorded: effectively inhibits high and low affinity hCav3.2 inward currents | 86.99 ± 1.56 | 81.61 ± 1.31 | 76.21 ± 1.61 | controlling seizures in mouse absence seizure models (absence seizure): effective in controlling seizures; Relative current amplitude (%) ([1]; 10 μM): 71.22 ± 2.40 %; Relative current amplitude (%) ([1]; 30 μM): 73.04 ± 1.64 %; Relative current amplitude (%) ([1]; 50 μM): 61.44 ± 4.96 %; Relative current amplitude (%) ([1]; 100 μM): 54.68 ± 6.35 %; Relative current amplitude (%) ([1]; 250 μM): 46.92 ± 6.64 %; Relative current amplitude (%) ([1]; 500 μM): 51.83 ± 4.77 %; Relative current amplitude (%) ([1]; 1000 μM): 45.48 ± 4.94 %; IC50 [1, 8]: 0.43 µM; IC50 [1, 9]: 62.6 µM; effects upon sub-maximal GABA currents (in words) [2]: devoid of effects
3 | CC(=O)O[C@H]1Cc2ccccc2N(C(N)=O)c2ccccc21 [eslicarbazepine acetate, (S)-10-acetoxy-10,11-dihydro-5H-dibenz[b,f]azepine-5-carboxamide] |  |  |  |  |  |  |  |  |  |  |  |  |  |  |  |  |  |  |  |  | controlling seizures in mouse absence seizure models (absence seizure): effective in controlling seizures; clinical effects in patients suffering from or susceptible to PGTCS [3]: improved clinical effects
